Several values for one entry are separate records, joined by “and”; a condition that tells them apart may be missing. Equal entries are not always repeated.
Columns and labels:
[1] = system: isolated hearts after ischemia-reperfusion; assay: Ischemia-reperfusion (IR) method, coronary flow; assay type: in vivo, mice
Experimental: FIG. 38 is a schematic of the ischemia-reperfusion (IR) method used to analyze the effects of compositions of the invention on coronary flow, cardiac function, and infarct size. […] At 20 minutes, ischemia was induced, and coronary flow was analyzed. At 50 minutes, reperfusion was initiated to restore blood flow. At 170 minutes, coronary flow and cardiac function was analyzed, and then the hearts were preserved, sectioned, and infarct size was measured by triphenyltetrazolium chloride (TTC) staining. FIG. 39 is a graph of coronary flow of after IR.

[2] = system: isolated hearts after ischemia-reperfusion; assay: Ischemia-reperfusion (IR) method, cardiac function (LVDP); assay type: in vivo, mice
Experimental: FIG. 38 is a schematic of the ischemia-reperfusion (IR) method used to analyze the effects of compositions of the invention on coronary flow, cardiac function, and infarct size. […] At 20 minutes, ischemia was induced, and coronary flow was analyzed. At 50 minutes, reperfusion was initiated to restore blood flow. At 170 minutes, coronary flow and cardiac function was analyzed, and then the hearts were preserved, sectioned, and infarct size was measured by triphenyltetrazolium chloride (TTC) staining. FIG. 40 is graph of left ventricular developed pressure (LVDP) after IR. Blue bars indicate LVDP at 20 minutes, and orange bars indicate LVDP at 170 minutes.

[3] = system: isolated hearts after ischemia-reperfusion; assay: Ischemia-reperfusion (IR) method, infarct size by TTC staining; assay type: in vivo, mice; conditions: result in words
Experimental: FIG. 38 is a schematic of the ischemia-reperfusion (IR) method used to analyze the effects of compositions of the invention on coronary flow, cardiac function, and infarct size. […] At 20 minutes, ischemia was induced, and coronary flow was analyzed. At 50 minutes, reperfusion was initiated to restore blood flow. At 170 minutes, coronary flow and cardiac function was analyzed, and then the hearts were preserved, sectioned, and infarct size was measured by triphenyltetrazolium chloride (TTC) staining. […] FIG. 42 is graph of infarct size after TR.

[4] = Stability of CV-8972 in aqueous solution at different concentrations and pH; assay type: physicochemical
Experimental: The stability of CV-8972 was analyzed. Aqueous samples containing CV-8972 at different concentrations and pH were incubated for various periods and analyzed.
Form A of CV-8972 were analyzed for stability in aqueous solution. Aqueous samples containing CV-8972 at different concentrations and pH were incubated for various periods and analyzed.

[5] = Stability of CV-8972 forms in various solvents, X-ray powder diffraction; assay type: physicochemical; conditions: batch 289-MBA-15-A (form B)
Experimental: The stability of CV-8972 was analyzed.
Samples from batch 289-MBA-15-A (containing form B) were added to various solvents, incubated under various conditions, and analyzed by X-ray powder diffraction.
Samples from batch 289-MBA-16 (containing forms A and B) were added to various solvents, incubated under various conditions, and analyzed by X-ray powder diffraction.
Samples from batch S-18-0030513 (containing form A) were added to various solvents, incubated under various conditions, and analyzed by X-ray powder diffraction.

Compound: COc1ccc(CN2CCNCC2)c(OC)c1OC [TMZ, trimetazidine]
- CF170/CF20 ([1]; group MEAN, ratio 170 minutes to 20 minutes): 4.02E+01 ul/m1
- CF170/CF20 ([1]; ratio of flow at 170 minutes to flow at 20 minutes, individual hearts, TMZ 20 μM, TNF 2 μM each, TNS 20 μM each): 2.42E+01 ul/m1 and 5.87E+01 ul/m1 and 3.57E+01 ul/m1 and 3.37E+01 ul/m1 and 5.21E+01 ul/m1 and 2.73E+01 ul/m1 and 2.60E+01 ul/m1 and 6.39E+01 ul/m1
- LVDP × HR ([2]; after 2h reperfusion, group MEAN): 6.82E+03
- LVDP × HR ([2]; after 2h reperfusion, individual hearts): 2.52E+03 and 5.15E+03 and 5.28E+03 and 4.49E+03 and 3.24E+03 and 4.31E+03 and 9.11E+03 and 1.30E+04 and 6.44E+03 and 1.77E+04
- LVDP × HR ([2]; pre-ischemia, group MEAN): 1.68E+04
- LVDP × HR ([2]; pre-ischemia, individual hearts): 1.83E+04 and 2.31E+04 and 1.08E+04 and 1.77E+04 and 2.33E+04 and 1.26E+04 and 9.82E+03 and 1.01E+04 and 1.57E+04 and 2.36E+04
- cardiac function after IR ([2]; result in words): prevented a decline in cardiac function
- infarct size after IR [3]: decreased infarct size

Compound: COc1ccc(CN2CCN(CCOC(=O)c3cccnc3)CC2)c(OC)c1OC.Cl.Cl.Cl [289-MBA-15-A]
- Retention Time 5.6 (CV-8972 peak) ([4]; 2 mg/mL pH 6 (Form B), 1 hrs, measured pH 6.9): 95.1
- Retention Time 5.6 (CV-8972 peak) ([4]; 2 mg/mL pH 6 (Form B), 4 hrs, measured pH 6.8): 92.45
- Retention Time 5.6 (CV-8972 peak) ([4]; 2 mg/mL pH 6 (Form B), 6 hrs, measured pH 6.8): 90.65
- Retention Time 5.6 (CV-8972 peak) ([4]; 2 mg/mL pH 6 (Form B), 22 hrs, measured pH 6.7): 89.15
- Retention Time 5.6 (CV-8972 peak) ([4]; 2 mg/mL pH 7 (Form B), 1 hrs, measured pH 6.6): 95.46
- Retention Time 5.6 (CV-8972 peak) ([4]; 2 mg/mL pH 7 (Form B), 4 hrs, measured pH 6.5): 93.92
- Retention Time 5.6 (CV-8972 peak) ([4]; 10 mg/mL pH 6 (Form B), 1 hrs, measured pH 6.1): 94.81
- Retention Time 5.6 (CV-8972 peak) ([4]; 10 mg/mL pH 6 (Form B), 4 hrs, measured pH 6): 94.69
- Retention Time 5.6 (CV-8972 peak) ([4]; 10 mg/mL pH 6 (Form B), 6 hrs, measured pH 5.9): 94.39
- Retention Time 5.6 (CV-8972 peak) ([4]; 10 mg/mL pH 6 (Form B), 22 hrs, measured pH 5.9): 93.93
- Retention Time 5.6 (CV-8972 peak) ([4]; 10 mg/mL pH 7 (Form B), 1 hrs, measured pH 7.4): 86.18
- Retention Time 5.6 (CV-8972 peak) ([4]; 10 mg/mL pH 7 (Form B), 4 hrs, measured pH 7.4): 82.36
- Retention Time 5.6 (CV-8972 peak) ([4]; 10 mg/mL pH 7 (Form B), 6 hrs, measured pH 7.3): 79.37

Compound: COc1ccc(CN2CCN(CCOC(=O)c3cccnc3)CC2)c(OC)c1OC [CV-8972, 2-(4-(2,3,4-trimethoxybenzyl)piperazin-1-yl)ethyl nicotinate]
- XRPD results ([5]; EtOH, CC from 60° C.): Form C + minor
- XRPD results ([5]; no solvent, 100° C., 20 minutes): Form B, shifted

Compound: COc1ccc(CN2CCN(CCOC(=O)c3cccnc3)CC2)c(OC)c1OC.Cl.Cl.Cl [276-MBA-172]
- Retention Time 5.6 (CV-8972 peak) ([4]; 2 mg/mL pH 6 (Form A), 1 hrs, measured pH 6.1): 97.22
- Retention Time 5.6 (CV-8972 peak) ([4]; 2 mg/mL pH 6 (Form A), 4 hrs, measured pH 6.1): 97.01
- Retention Time 5.6 (CV-8972 peak) ([4]; 2 mg/mL pH 6 (Form A), 6 hrs, measured pH 6.1): 96.51
- Retention Time 5.6 (CV-8972 peak) ([4]; 2 mg/mL pH 7 (Form A), 1 hrs, measured pH 6.8): 95.06
- Retention Time 5.6 (CV-8972 peak) ([4]; 2 mg/mL pH 7 (Form A), 4 hrs, measured pH 6.7): 93.7
- Retention Time 5.6 (CV-8972 peak) ([4]; 2 mg/mL pH 7 (Form A), 6 hrs, measured pH 6.7): 92.12
- Retention Time 5.6 (CV-8972 peak) ([4]; 2 mg/mL pH 7 (Form A), 22 hrs, measured pH 6.8): 91.07
- Retention Time 5.6 (CV-8972 peak) ([4]; 10 mg/mL pH 6 (Form A), 1 hrs, measured pH 6.8): 93.43
- Retention Time 5.6 (CV-8972 peak) ([4]; 10 mg/mL pH 6 (Form A), 4 hrs, measured pH 6.8): 91.82
- Retention Time 5.6 (CV-8972 peak) ([4]; 10 mg/mL pH 6 (Form A), 6 hrs, measured pH 6.7): 91.8
- Retention Time 5.6 (CV-8972 peak) ([4]; 10 mg/mL pH 6 (Form A), 22 hrs, measured pH 6.7): 89.66
- Retention Time 5.6 (CV-8972 peak) ([4]; 10 mg/mL pH 7 (Form A), 1 hrs, measured pH 7.2): 89.05
- Retention Time 5.6 (CV-8972 peak) ([4]; 10 mg/mL pH 7 (Form A), 4 hrs, measured pH 7.1): 86.8
- Retention Time 5.6 (CV-8972 peak) ([4]; 10 mg/mL pH 7 (Form A), 6 hrs, measured pH 7.1): 84.79

From patent US20220168431A1, “METHODS OF TREATING CANCER USING TRIMETAZIDINE-BASED COMPOUNDS” (IMBRIA PHARMACEUTICALS, INC., priority 2019, published 2022)
